Source: PubChem BioAssay (NCI)
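These data come from cells grown in 96-well plates and exposed to compound for 48 hours at five concentrations. TGI is the concentration that stops growth completely.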

Tests used:
Assay in all cases: NCI tumour cell line growth inhibition, 48 h
A498 renal = system: A498 renal
A549 NSCLC = system: A549 NSCLC
CAKI-1 renal = system: CAKI-1 renal
COLO 205 colon = system: COLO 205 colon
DLD-1 colon = system: DLD-1 colon
DMS 114 small cell lung = system: DMS 114 small cell lung
DMS 273 small cell lung = system: DMS 273 small cell lung
EKVX NSCLC = system: EKVX NSCLC
HCC-2998 colon = system: HCC-2998 colon
HCT-116 colon = system: HCT-116 colon
HCT-15 colon = system: HCT-15 colon
HL-60(TB) leukemia = system: HL-60(TB) leukemia
HOP-18 NSCLC = system: HOP-18 NSCLC
HOP-62 NSCLC = system: HOP-62 NSCLC
HOP-92 NSCLC = system: HOP-92 NSCLC
HT29 colon = system: HT29 colon
IGROV1 ovarian = system: IGROV1 ovarian
K-562 leukemia = system: K-562 leukemia
KM12 colon = system: KM12 colon
KM20L2 colon = system: KM20L2 colon
LOX IMVI melanoma = system: LOX IMVI melanoma
M19-MEL melanoma = system: M19-MEL melanoma
MALME-3M melanoma = system: MALME-3M melanoma
MCF7 breast = system: MCF7 breast
MOLT-4 leukemia = system: MOLT-4 leukemia
NCI-H226 lung = system: NCI-H226 lung
NCI-H23 lung = system: NCI-H23 lung
NCI-H460 lung = system: NCI-H460 lung
NCI-H522 lung = system: NCI-H522 lung
NCI/ADR-RES ovarian = system: NCI/ADR-RES ovarian
OVCAR-3 ovarian = system: OVCAR-3 ovarian
OVCAR-4 ovarian = system: OVCAR-4 ovarian
OVCAR-5 ovarian = system: OVCAR-5 ovarian
OVCAR-8 ovarian = system: OVCAR-8 ovarian
P388 leukemia = system: P388 leukemia
P388/ADR leukemia = system: P388/ADR leukemia
RPMI-8226 leukemia = system: RPMI-8226 leukemia
RXF 393 renal = system: RXF 393 renal
SF-268 CNS = system: SF-268 CNS
SF-295 CNS = system: SF-295 CNS
SF-539 CNS = system: SF-539 CNS
SK-MEL-2 melanoma = system: SK-MEL-2 melanoma
SK-MEL-28 melanoma = system: SK-MEL-28 melanoma
SK-MEL-5 melanoma = system: SK-MEL-5 melanoma
SK-OV-3 ovarian = system: SK-OV-3 ovarian
SN12C renal = system: SN12C renal
SN12K1 renal = system: SN12K1 renal
SNB-19 CNS = system: SNB-19 CNS
SNB-75 CNS = system: SNB-75 CNS
SNB-78 CNS = system: SNB-78 CNS
SW-620 colon = system: SW-620 colon
U251 CNS = system: U251 CNS
UACC-257 melanoma = system: UACC-257 melanoma
UACC-62 melanoma = system: UACC-62 melanoma
UO-31 renal = system: UO-31 renal
XF 498 CNS = system: XF 498 CNS
786-0 renal = system: 786-0 renal
ACHN renal = system: ACHN renal
CCRF-CEM leukemia = system: CCRF-CEM leukemia
LXFL 529 NSCLC = system: LXFL 529 NSCLC
M14 melanoma = system: M14 melanoma
RXF-631 renal = system: RXF-631 renal
SR leukemia = system: SR leukemia
TK-10 renal = system: TK-10 renal

## CC1OC1C(=O)C1(O)C(C)C(O)C23OC2(C(O)c2c(O)cccc2C3=O)C1O (centres undefined)
A498 renal
  TGI: 1.2 µM
A549 NSCLC
  TGI: 0.519 µM
CAKI-1 renal
  TGI: 0.253 µM
COLO 205 colon
  TGI: 0.223 µM
DLD-1 colon
  TGI: 1.7 µM
DMS 114 small cell lung
  TGI: 0.191 µM
DMS 273 small cell lung
  TGI: 0.551 µM
EKVX NSCLC
  TGI: 0.541 µM
HCC-2998 colon
  TGI: 0.401 µM
HCT-116 colon
  TGI: 0.703 µM
HCT-15 colon
  TGI: 0.926 µM
HL-60(TB) leukemia
  TGI: 0.383 µM
HOP-18 NSCLC
  TGI: 0.489 µM
HOP-62 NSCLC
  TGI: 0.462 µM
HOP-92 NSCLC
  TGI: 0.0971 µM
HT29 colon
  TGI: 0.629 µM
IGROV1 ovarian
  TGI: 0.775 µM
K-562 leukemia
  TGI: 0.776 µM
KM12 colon
  TGI: 1.04 µM
KM20L2 colon
  TGI: 1.14 µM
LOX IMVI melanoma
  TGI: 0.629 µM
M19-MEL melanoma
  TGI: 0.526 µM
MALME-3M melanoma
  TGI: 0.247 µM
MCF7 breast
  TGI: 2.01 µM
MOLT-4 leukemia
  TGI: 0.495 µM
NCI-H226 lung
  TGI: 0.838 µM
NCI-H23 lung
  TGI: 0.543 µM
NCI-H460 lung
  TGI: 0.565 µM
NCI-H522 lung
  TGI: 0.338 µM
NCI/ADR-RES ovarian
  TGI: 0.732 µM
OVCAR-3 ovarian
  TGI: 0.352 µM
OVCAR-4 ovarian
  TGI: 0.0982 µM
OVCAR-5 ovarian
  TGI: 3.08 µM
OVCAR-8 ovarian
  TGI: 1.72 µM
P388 leukemia
  TGI: 0.345 µM
P388/ADR leukemia
  TGI: 0.425 µM
RPMI-8226 leukemia
  TGI: 0.73 µM
RXF 393 renal
  TGI: 0.599 µM
SF-268 CNS
  TGI: 0.525 µM
SF-295 CNS
  TGI: 0.693 µM
SF-539 CNS
  TGI: 0.276 µM
SK-MEL-2 melanoma
  TGI: 0.413 µM
SK-MEL-28 melanoma
  TGI: 0.682 µM
SK-MEL-5 melanoma
  TGI: 0.534 µM
SK-OV-3 ovarian
  TGI: 0.532 µM
SN12C renal
  TGI: 0.343 µM
SN12K1 renal
  TGI: 0.889 µM
SNB-19 CNS
  TGI: 0.742 µM
SNB-75 CNS
  TGI: 0.747 µM
SNB-78 CNS
  TGI: 3.46 µM
SW-620 colon
  TGI: 1.21 µM
U251 CNS
  TGI: 1.09 µM
UACC-257 melanoma
  TGI: 0.714 µM
UACC-62 melanoma
  TGI: 0.646 µM
UO-31 renal
  TGI: 0.565 µM
XF 498 CNS
  TGI: 0.961 µM

## CS/C(C)=N/OC(=O)NCCCCNc1ccc(N=[N+]=[N-])cc1
786-0 renal
  TGI: > 100 µM
A498 renal
  TGI: > 100 µM
A549 NSCLC
  TGI: > 100 µM
ACHN renal
  TGI: 97.2 µM
CAKI-1 renal
  TGI: > 100 µM
CCRF-CEM leukemia
  TGI: > 100 µM
COLO 205 colon
  TGI: > 100 µM
DLD-1 colon
  TGI: > 100 µM
DMS 114 small cell lung
  TGI: 43.2 µM
EKVX NSCLC
  TGI: > 100 µM
HCC-2998 colon
  TGI: 56.1 µM
HCT-116 colon
  TGI: > 100 µM
HCT-15 colon
  TGI: > 100 µM
HOP-18 NSCLC
  TGI: > 100 µM
HOP-62 NSCLC
  TGI: > 100 µM
HOP-92 NSCLC
  TGI: > 100 µM
HT29 colon
  TGI: > 100 µM
IGROV1 ovarian
  TGI: > 100 µM
K-562 leukemia
  TGI: > 100 µM
KM12 colon
  TGI: > 100 µM
KM20L2 colon
  TGI: > 100 µM
LOX IMVI melanoma
  TGI: > 100 µM
LXFL 529 NSCLC
  TGI: > 100 µM
M14 melanoma
  TGI: > 100 µM
M19-MEL melanoma
  TGI: > 100 µM
MALME-3M melanoma
  TGI: > 100 µM
MOLT-4 leukemia
  TGI: > 100 µM
NCI-H226 lung
  TGI: > 100 µM
NCI-H23 lung
  TGI: > 100 µM
NCI-H460 lung
  TGI: > 100 µM
NCI-H522 lung
  TGI: 23.7 µM
OVCAR-3 ovarian
  TGI: 62.9 µM
OVCAR-4 ovarian
  TGI: > 100 µM
OVCAR-5 ovarian
  TGI: > 100 µM
OVCAR-8 ovarian
  TGI: > 100 µM
RPMI-8226 leukemia
  TGI: > 100 µM
RXF 393 renal
  TGI: > 100 µM
RXF-631 renal
  TGI: 31.4 µM
SF-268 CNS
  TGI: > 100 µM
SF-295 CNS
  TGI: > 100 µM
SF-539 CNS
  TGI: > 100 µM
SK-MEL-28 melanoma
  TGI: > 100 µM
SK-MEL-5 melanoma
  TGI: 38.6 µM
SK-OV-3 ovarian
  TGI: > 100 µM
SN12C renal
  TGI: > 100 µM
SNB-19 CNS
  TGI: > 100 µM
SNB-75 CNS
  TGI: > 100 µM
SNB-78 CNS
  TGI: > 100 µM
SR leukemia
  TGI: > 100 µM
SW-620 colon
  TGI: > 100 µM
TK-10 renal
  TGI: > 100 µM
U251 CNS
  TGI: > 100 µM
UACC-257 melanoma
  TGI: > 100 µM
UACC-62 melanoma
  TGI: 89.4 µM
UO-31 renal
  TGI: 82.4 µM
XF 498 CNS
  TGI: 52 µM

## O=C(CCc1cc(-c2ccccc2)nc(=S)[nH]1)Nc1ccccc1[N+](=O)[O-]
786-0 renal
  TGI: > 100 µM
A498 renal
  TGI: > 100 µM
A549 NSCLC
  TGI: > 100 µM
ACHN renal
  TGI: > 100 µM
CAKI-1 renal
  TGI: > 100 µM
CCRF-CEM leukemia
  TGI: > 100 µM
COLO 205 colon
  TGI: > 100 µM
DMS 114 small cell lung
  TGI: > 100 µM
DMS 273 small cell lung
  TGI: > 100 µM
EKVX NSCLC
  TGI: > 100 µM
HCC-2998 colon
  TGI: > 100 µM
HCT-116 colon
  TGI: > 100 µM
HCT-15 colon
  TGI: > 100 µM
HL-60(TB) leukemia
  TGI: > 100 µM
HOP-18 NSCLC
  TGI: > 100 µM
HOP-62 NSCLC
  TGI: > 100 µM
HOP-92 NSCLC
  TGI: > 100 µM
HT29 colon
  TGI: > 100 µM
IGROV1 ovarian
  TGI: > 100 µM
K-562 leukemia
  TGI: > 100 µM
KM12 colon
  TGI: > 100 µM
KM20L2 colon
  TGI: > 100 µM
LOX IMVI melanoma
  TGI: > 100 µM
LXFL 529 NSCLC
  TGI: > 100 µM
M14 melanoma
  TGI: > 100 µM
M19-MEL melanoma
  TGI: > 100 µM
MALME-3M melanoma
  TGI: > 100 µM
MOLT-4 leukemia
  TGI: > 100 µM
NCI-H226 lung
  TGI: > 100 µM
NCI-H23 lung
  TGI: > 100 µM
NCI-H460 lung
  TGI: > 100 µM
NCI-H522 lung
  TGI: > 100 µM
OVCAR-3 ovarian
  TGI: > 100 µM
OVCAR-5 ovarian
  TGI: > 100 µM
OVCAR-8 ovarian
  TGI: > 100 µM
RPMI-8226 leukemia
  TGI: > 100 µM
RXF 393 renal
  TGI: > 100 µM
RXF-631 renal
  TGI: > 100 µM
SF-268 CNS
  TGI: > 100 µM
SF-295 CNS
  TGI: > 100 µM
SF-539 CNS
  TGI: > 100 µM
SK-MEL-2 melanoma
  TGI: > 100 µM
SK-MEL-28 melanoma
  TGI: > 100 µM
SK-MEL-5 melanoma
  TGI: > 100 µM
SK-OV-3 ovarian
  TGI: > 100 µM
SN12C renal
  TGI: > 100 µM
SNB-19 CNS
  TGI: > 100 µM
SNB-75 CNS
  TGI: > 100 µM
SNB-78 CNS
  TGI: > 100 µM
SR leukemia
  TGI: > 100 µM
SW-620 colon
  TGI: > 100 µM
TK-10 renal
  TGI: > 100 µM
U251 CNS
  TGI: > 100 µM
UACC-257 melanoma
  TGI: > 100 µM
UACC-62 melanoma
  TGI: > 100 µM
UO-31 renal
  TGI: > 100 µM
XF 498 CNS
  TGI: 91.5 µM
